Measured values as given in PubChem BioAssay AID1437 (PCMD, 2008).
pIC50: −log10 of the molar value. The source made the active and inactive calls. The rule behind the calls is not given here.

Molecular target: DNA repair protein RAD51 homolog 1 (Homo sapiens) (UniProt Q06609)
Test: RAD51 recombination inhibitor potency, dose response, biochemical, homologous recombination, fluorescence, second set (AID 1437)
Conditions: RAD51 homologous recombination biochemical assay

Chain of DNA repair protein RAD51 homolog 1 (Homo sapiens) (Q06609 whole entry, looked up): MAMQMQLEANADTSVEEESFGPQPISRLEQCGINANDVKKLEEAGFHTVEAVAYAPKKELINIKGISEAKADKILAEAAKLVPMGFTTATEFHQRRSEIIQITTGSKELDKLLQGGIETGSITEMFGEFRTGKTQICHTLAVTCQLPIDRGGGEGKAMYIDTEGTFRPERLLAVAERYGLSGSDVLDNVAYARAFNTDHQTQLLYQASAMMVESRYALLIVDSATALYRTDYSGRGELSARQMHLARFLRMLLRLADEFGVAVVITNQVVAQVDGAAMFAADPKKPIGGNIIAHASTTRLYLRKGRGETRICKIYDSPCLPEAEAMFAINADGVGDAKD

SMILES	pIC50	IC50
COC(=O)c1ccc(=O)c2nc3/c(=C/O)c(O)cc(=O)c3[nH]c12	4.60	
Cc1ccc(C2/C(=C(\O)c3ccc4c(c3)OCCO4)C(=O)C(=O)N2CCCN(C)C)o1 (stereo not drawn)		> 53 µM (inactive)
Cc1cc(C)cc(N2C(=O)CC(Sc3nnnn3-c3ccccc3)C2=O)c1 (stereo not drawn)		> 53 µM (inactive)
